Drawing on PubChem BioAssay (NCI), this text covers GI50 and TGI for eleven molecules.

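Grown in 96-well plates, cells were treated for 48 hours with each compound at five concentrations. Insufficient inhibition: endpoint recorded as highest concentration tested. At the GI50, growth is halved. TGI marks complete inhibition of growth.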

Test systems include SN12C renal; MALME-3M melanoma; SF-539 CNS; EKVX NSCLC; SNB-75 CNS; MOLT-4 leukemia; ACHN renal; M14 melanoma; HOP-62 NSCLC; HL-60(TB) leukemia.
What all share (assay): DTP human tumour cell line panel, 48 h

What is called GI50 is the concentration at which growth is held to half of that of the control. Usually TGI stands for the concentration at which net growth stops. Read a high TGI as less potent growth arrest. As to `O=c1c(-c2nc3ccccc3[nH]2)cc2ccccc2n1Cc1cn(Cc2ccc(F)cc2)nn1`, the GI50 is 0.203 µM with SN12C renal; 0.213 µM in the test on MALME-3M melanoma; 0.137 µM with SF-539 CNS; 0.799 µM in the test with EKVX NSCLC; < 0.0149 µM in the test on SNB-75 CNS; 0.233 µM with MOLT-4 leukemia. Further, the GI50 with ACHN renal is 0.492 µM; in the test on M14 melanoma it was 0.0568 µM; with HOP-62 NSCLC, 0.222 µM. For the same molecule, the TGI in the test with SN12C renal was > 100 µM; in the test with MALME-3M melanoma, 66.4 µM; with SF-539 CNS, 0.636 µM; in the test with EKVX NSCLC it was > 100 µM; in the test on SNB-75 CNS it was 0.113 µM; in the test on MOLT-4 leukemia, > 100 µM. Besides, the TGI with ACHN renal was > 40.5 µM; in the test with M14 melanoma, 0.39 µM; in the test on HOP-62 NSCLC, 9.51 µM.

Consider `O=c1cc(/C=C/c2ccccc2)c2ccc(O/C(=C\c3ccccc3)c3nc4ccccc4c(=O)o3)cc2o1`, for which the TGI with SN12C renal was > 100 µM; in the test with MALME-3M melanoma, > 100 µM; in the test with SF-539 CNS, 63.2 µM; in the test on EKVX NSCLC, > 100 µM; in the test on HL-60(TB) leukemia, 45.5 µM; with MOLT-4 leukemia, 74.3 µM. The results for the TGI in the test on ACHN renal, with M14 melanoma and in the test on HOP-62 NSCLC were 61.7 µM, 50.1 µM and 84.7 µM, respectively.

As to `OC1OC2COC(c3ccccc3)OC2C(O)C1O` (centres undefined), the TGI in the test with SN12C renal, with MALME-3M melanoma, with SF-539 CNS, with EKVX NSCLC, in the test with HL-60(TB) leukemia and in the test with MOLT-4 leukemia was > 100 µM each time. Further, the TGI in the test with ACHN renal, with M14 melanoma and in the test with HOP-62 NSCLC was > 100 µM each time.

Consider `COC(=O)c1cccc(COc2ccc([N+](=O)[O-])cc2Cl)c1`, for which the TGI in the test with SN12C renal, with MALME-3M melanoma, in the test on SF-539 CNS, with EKVX NSCLC, with SNB-75 CNS and in the test with MOLT-4 leukemia was > 100 µM throughout. Besides, the TGI in the test on ACHN renal, in the test on M14 melanoma and with HOP-62 NSCLC was > 100 µM in each case.

As to `CC12CCC(C)(c3cc(O)c(O)cc31)c1cc(O)c(O)cc12`, the TGI with SN12C renal came out at 48.6 µM; in the test with MALME-3M melanoma it was 45.2 µM; in the test with EKVX NSCLC, 56.3 µM; with SNB-75 CNS it was 52.5 µM; with HL-60(TB) leukemia, 13.1 µM; in the test with MOLT-4 leukemia, 42.5 µM. Besides, the TGI is 32.5 µM in the test with ACHN renal, 36 µM in the test with M14 melanoma and 67.8 µM in the test with HOP-62 NSCLC.

For `CC(=O)O[C@H]1CC[C@@]2(C)[C@@H](CC[C@@H]3[C@@H]2CC(=O)[C@@]2(C)[C@H]3C[C@@H]3CC(C)=CC(=O)[C@@H]32)C1`, the TGI with SN12C renal is > 100 µM; in the test with MALME-3M melanoma, > 100 µM; in the test on EKVX NSCLC, > 100 µM; in the test with SNB-75 CNS it was 73.8 µM; in the test on HL-60(TB) leukemia, 27.8 µM; in the test on ACHN renal, > 100 µM. For the same molecule, the TGI in the test with M14 melanoma and in the test with HOP-62 NSCLC was > 100 µM throughout.

As to `COc1cc2c(cc1OC)-c1c(c3ccc([N+](=O)[O-])cc3c(=O)n1CCCBr)C2=O`, the GI50 with SN12C renal is 4.31 µM; in the test with MALME-3M melanoma, 9.72 µM; with SF-539 CNS it was 10.4 µM; in the test with EKVX NSCLC it was > 100 µM; in the test with HL-60(TB) leukemia it was 1.31 µM; with MOLT-4 leukemia it was 0.461 µM. In addition, the GI50 in the test on ACHN renal was 1.18 µM; in the test with M14 melanoma, 2.39 µM; in the test on HOP-62 NSCLC, 20.7 µM. In addition, the TGI in the test with SN12C renal was > 100 µM; in the test on MALME-3M melanoma, 81.1 µM; with SF-539 CNS, > 100 µM; with EKVX NSCLC it was > 100 µM; with HL-60(TB) leukemia it was 10.2 µM; with MOLT-4 leukemia it was > 100 µM. The results for the TGI in the test on ACHN renal, with M14 melanoma and in the test on HOP-62 NSCLC were 36.8 µM, 26.7 µM and > 100 µM, respectively.

For the molecule `Cc1cc(=O)[nH]c2c1C(=O)C(=O)C=C2`, the GI50 in the test with SN12C renal is 16.8 µM; in the test with MALME-3M melanoma, 29.8 µM; in the test with SF-539 CNS it was 28.2 µM; in the test with EKVX NSCLC, 54 µM; with SNB-75 CNS, 33.5 µM; with MOLT-4 leukemia, 39.5 µM. In addition, the GI50 in the test on ACHN renal is 31.7 µM; with M14 melanoma it was 23.8 µM; in the test on HOP-62 NSCLC it was 17.6 µM. For the same molecule, the TGI in the test on SN12C renal is 32.7 µM; in the test with MALME-3M melanoma, 96.8 µM; in the test on SF-539 CNS, 47.7 µM; with EKVX NSCLC, > 100 µM; in the test on SNB-75 CNS, > 100 µM; in the test on MOLT-4 leukemia, > 100 µM. Moreover, the TGI in the test with ACHN renal was > 100 µM; in the test on M14 melanoma, 60.9 µM; in the test with HOP-62 NSCLC, 35.7 µM.

`Cc1cc2c(C=O)[nH]nc2c(C#N)c1C`: the TGI with SN12C renal is 78.6 µM; in the test with MALME-3M melanoma it was > 100 µM; in the test on SF-539 CNS, 61.4 µM; in the test with EKVX NSCLC, > 100 µM; with SNB-75 CNS it was 40.9 µM; with MOLT-4 leukemia, > 100 µM. Besides, the total growth inhibition concentration (TGI) with ACHN renal, with M14 melanoma and in the test with HOP-62 NSCLC was > 100 µM each time.

As for `COc1ccc2c(C(=O)NCCCCCC(=O)O)cc3cc4c(cc3c2c1)OCO4`, the GI50 is > 100 µM with SN12C renal; > 100 µM in the test on MALME-3M melanoma; > 100 µM in the test on SF-539 CNS; > 100 µM in the test with EKVX NSCLC; 23.9 µM with SNB-75 CNS; > 100 µM in the test with MOLT-4 leukemia. Further, the GI50 in the test on ACHN renal, with M14 melanoma and in the test with HOP-62 NSCLC was > 100 µM throughout. For the same molecule, the TGI in the test on SN12C renal is > 100 µM; with MALME-3M melanoma, > 100 µM; with SF-539 CNS it was > 100 µM; in the test with EKVX NSCLC, > 100 µM; with SNB-75 CNS, 97.9 µM; in the test with MOLT-4 leukemia it was > 100 µM. Besides, the TGI in the test on ACHN renal, in the test on M14 melanoma and in the test with HOP-62 NSCLC was > 100 µM throughout.

In the case of `COc1ccc(/C=C\c2cc(OC)c(OC(C)=O)c(OC)c2)cc1`, the TGI in the test with SN12C renal was 30.8 µM; in the test with MALME-3M melanoma it was 91.1 µM; in the test on SF-539 CNS, 14.9 µM; in the test on EKVX NSCLC, > 100 µM; in the test on SNB-75 CNS it was 15 µM; with MOLT-4 leukemia it was 38.6 µM. The TGI in the test with ACHN renal was > 100 µM; with M14 melanoma, 92.2 µM; in the test on HOP-62 NSCLC, 85.6 µM.
